Laboratory results: patent US20250387352A1 (SpringWorks Therapeutics, Inc., priority 2024, published 2025)

Columns and labels:
[1] = Metabolism and excretion of mirdametinib (radioactivity recovery); format: in vivo
[2] = system: NF1-associated plexiform neurofibromas (PNs); assay: Phase 2b trial of mirdametinib in adult and pediatric patients with NF1-associated inoperable plexiform neurofibromas: efficacy by BICR volumetric MRI (REiNS); format: in vivo, human
Procedure: Study treatment was administered orally at a twice daily (BID) dose specified in the table below. Dosing was on a 28-day Cycle (4-week course) with a 3 week on/1 week off schedule. The treatment period will last for up to 24 Cycles followed by a 30-day Safety Follow-Up period.
A partial response was defined as PN decrease ≥20% compared to baseline using centrally read MRI volumetric analysis.
The major efficacy outcome measure was confirmed objective response rate (ORR), defined as the percentage of patients with complete response (disappearance of the target PN) or confirmed partial response (≥20% reduction in PN volume confirmed at a subsequent tumor assessment within 2-6 months during the 24-cycle treatment phase). Responses were assessed by blinded independent central review (BICR) using volumetric magnetic resonance imaging (MRI) analysis per Response Evaluation in Neurofibromatosis and Schwannomatosis (REINS) criteria. A secondary efficacy objective was to determine the duration of response for patients who achieved a confirmed objective response.

[3] = Clinical pharmacokinetic parameters of mirdametinib (Table A); conditions: human, in vivo

With `O=C(NOC[C@H](O)CO)c1ccc(F)c(F)c1Nc1ccc(I)cc1F` (single isomer, unassigned) [mirdametinib] the “Excretion: Radioactivity” value ([1]; In feces) was “In feces: 27%”, the “Excretion: Radioactivity” value ([1]; In urine) was “In urine: 68%” and the “Excretion: Unchanged mirdametinib” value ([1]; In urine) was “In urine: 0.7%”. For the same molecule, the “Excretion: Unchanged mirdametinib” value ([1]; In urine and feces) was “In urine and feces: 9%”, the “median time to onset of response” value ([2]; adult cohort) was 7.8 months and the “ORR also considering confirmed objective response after cycle 24” value ([2]; adults) was 45%. The “median time to onset of response” value ([2]; pediatric cohort) was 7.9 months, the “ORR also considering confirmed objective response after cycle 24” value ([2]; pediatric patients) was 54% and the Time to steady-state [3] was “Approximately 6 days”.
